Test results as given in patent publication US20130310256A1, “HERBICIDAL COMPOSITIONS COMPRISING 4-AMINO-3-CHLORO-5-FLUORO-6-(4-CHLORO-2-FLUORO-3-METHOXYPHENYL) PYRIDINE-2-CARBOXYLIC ACID OR A DERIVATIVE THEREOF AND VLCFA AND LIPID SYNTHESIS INHIBITING HERBICIDES” (DOW AGROSCIENCES LLC, priority 2008, published 2013).

Assays:
[1] = test system: BRAPP; assay: Example I: postemergence foliar-applied weed control, direct seeded rice weeds, greenhouse; type: in vivo; details: foliar
Source text: (§1) Seeds or nutlets of the desired test plant species were planted in a soil matrix prepared by mixing a loam or sandy loam soil (e.g., 28.6 percent silt, 18.8 percent clay, and 52.6 percent sand, with a pH of about 5.8 and an organic matter content of about 1.8 percent) and calcareous grit in an 80 to 20 ratio. The soil matrix was contained in plastic pots with a volume of 1 quart and a surface area of 83.6 square centimeters (cm^2). When required to ensure good germination and healthy plants, a fungicide treatment and/or other chemical or physical treatment was applied. The plants were grown for 8-22 days in a greenhouse with an approximate 14 hr photoperiod which was maintained at about 29° C. during the day and 26° C. during the night. Nutrients (Peters Excel® 15-5-15 5-Ca 2-Mg and iron chelate) were applied in the irrigation solution as needed and water was added on a regular basis. Supplemental lighting was provided with overhead metal halide 1000-Watt lamps as necessary. The plants were employed for testing when they reached the first through fourth true leaf stage.
(§2) Treatments consisted of the acid or esters of 4-amino-3-chloro-5-fluoro-6-(4-chloro-2-fluoro-3-methoxy-phenyl)pyridine-2-carboxylic acid (Compound A), each formulated as an SC (suspension concentrate), and various herbicidal components alone and in combination. Forms of compound A were applied on an acid equivalent basis.
(§3) Other herbicidal components were applied on an active ingredient basis and included very long chain fatty acid (VLCFA) synthesis-inhibiting and fatty acid/lipid synthesis-inhibiting herbicides acetochlor (technical grade material), acetochlor+dichlormid formulated as Topnotch®, pretilachlor (technical grade material), butachlor formulated as Butachlor EC, fentrazamide formulated as Fentrazamide EC, thiobencarb formulated as Bolero® 8EC, cafenstrole formulated as Himeadow® WP or Lapost® Flowable, benfuresate formulated as Full Shot®, dimethenamid-P formulated as Outlook®, indanofan (technical grade material), flufenacet formulated as Define® DF, mefenacet (technical grade material), S-metolachlor formulated as Dual® II Magnum, pethoxamid formulated as Successor® 600, and pyroxasulfone (technical grade material).
(§4) Treatment requirements were calculated based upon the rates being tested, the concentration of active ingredient or acid equivalent in the formulation, and a 12 mL application volume at a rate of 187 L/ha.
(§5) For treatments comprised of formulated compounds, measured amounts of compounds were placed individually in 25 mL glass vials and diluted in a volume of 1.25% (v/v) Agri-Dex® crop oil concentrated to obtain 12× stock solutions. […] Application solutions were prepared by adding an appropriate amount of each stock solution (e.g., 1 mL) and diluted to the appropriate final concentrations with the addition of 10 mL of an aqueous mixture of 1.25% (v/v) crop oil concentrate so that the final spray solutions contained 1.25+/−0.05% (v/v) crop oil concentrate.
(§6) For treatments comprised of technical compounds, weighed amounts can be placed individually in 25 mL glass vials and dissolved in a volume of 97:3 v/v acetone/DMSO to obtain 12× stock solutions. […] Application solutions can be prepared by adding an appropriate amount of each stock solution (e.g., 1 mL) and diluted to the appropriate final concentrations with the addition of 10 mL of an aqueous mixture of 1.5% (v/v) crop oil concentrate so that the final spray solutions contain 1.25% (v/v) crop oil concentrate. When technical materials are used, the concentrated stock solutions can be added to the spray solutions so that the final acetone and DMSO concentrations of the application solutions are […], respectively. […]

[2] = test system: CHEAL; assay: Example III: post-emergence foliar-applied weed control in cereal crops, greenhouse; type: in vivo, Chenopodium album L.; details: 21 DAA
Procedure: (§7) Seeds of the desired test plant species were planted in Sun Gro MetroMix® 306 planting mixture, which typically has a pH of 6.0 to 6.8 and an organic matter content of about 30 percent, in plastic pots with a surface area of 103.2 square centimeters (cm^2). When required to ensure good germination and healthy plants, a fungicide treatment and/or other chemical or physical treatment was applied. The plants were grown for 7-36 days in a greenhouse with an approximate 14 hour photoperiod which was maintained at about 18° C. during the day and 17° C. during the night. Nutrients and water were added on a regular basis and supplemental lighting was provided with overhead metal halide 1000-Watt lamps as necessary. The plants were employed for testing when they reached the second or third true leaf stage.
(§8) Treatments consisted of the benzyl ester of 4-amino-3-chloro-5-fluoro-6-(4-chloro-2-fluoro-3-methoxy-phenyl)pyridine-2-carboxylic acid (Compound A), formulated as an SC (suspension concentrate), and a second cereal herbicide alone and in combination.
(§9) Measured aliquots of the benzyl ester of 4-amino-3-chloro-5-fluoro-6-(4-chloro-2-fluoro-3-methoxy-phenyl)pyridine-2-carboxylic acid (Compound A) were placed in 25 milliliter (mL) glass vials and diluted in a volume of 1.25% (v/v) Agri-dex crop oil concentrated to obtain stock solutions. Compound requirements are based upon a 12 mL application volume at a rate of 187 liters per hectare (L/ha). Spray solutions of the second cereal herbicide and experimental compound mixtures were prepared by adding the stock solutions to the appropriate amount of dilution solution to form 12 mL spray solution with active ingredients in two- and three-way combinations. Formulated compounds were applied to the plant material with an overhead Mandel track sprayer equipped with an 8002E nozzle calibrated to deliver 187 L/ha over an application area of 0.503 square meters (m^2) at a spray height of 18 inches (46 cm) above average plant canopy. Control plants were sprayed in the same manner with the solvent blank.
(§10) The treated plants and control plants were placed in a greenhouse as described above and watered by sub-irrigation to prevent wash-off of the test compounds. After 20-22 days, the condition of the test plants as compared with that of the control plants was determined visually and scored on a scale of 0 to 100 percent where 0 corresponds to no injury and 100 corresponds to complete kill.
(§11) Colby's equation was used to determine the herbicidal effects expected from the mixtures (Colby, S. R. 1967. Calculation of the synergistic and antagonistic response of herbicide combinations. Weeds 15:20-22.).

[3] = test system: CIRAR; assay: as above; type: in vivo, Cirsium arvense (L.) Scop.; details: 21 DAA
Procedure: as §7, §8, §9, §10, §11

[4] = test system: KCHSC; assay: as above; type: in vivo, Kochia scoparia (L.) Schrad.; details: 21 DAA
Procedure: as §7, §8, §9, §10, §11

[5] = test system: PAPRH; assay: as above; type: in vivo, Papaver rhoeas L.; details: 21 DAA
Procedure: as §7, §8, §9, §10, §11

[6] = test system: SASKR; assay: as above; type: in vivo, Salsola tragus L.; details: 21 DAA
Procedure: as §7, §8, §9, §10, §11

[7] = test system: SINAR; assay: as above; type: in vivo, Sinapis arvensis L.; details: 21 DAA
Procedure: as §7, §8, §9, §10, §11

[8] = test system: STEME; assay: as above; type: in vivo, Stellaria media (L.) Vill.; details: 21 DAA
Procedure: as §7, §8, §9, §10, §11

[9] = test system: LEFCH; assay: Example I: postemergence foliar-applied weed control, greenhouse; type: in vivo, Leptochloa chinensis (L.) Nees (Chinese sprangletop); details: foliar
Source text: as §1, §2, §3, §4, §5, §6

[10] = test system: CYPIR; assay: as above; type: in vivo, Cyperus iria L. (rice flatsedge); details: foliar
Source text: as §1, §2, §3, §4, §5, §6

[11] = test system: CYPES; assay: as above; type: in vivo, Cyperus esculentus L. (yellow nutsedge)

CC(C)N(C(=O)COc1nnc(C(F)(F)F)s1)c1ccc(F)cc1 [Flufenacet, N-(4-fluorophenyl)-N-(1-methylethyl)-2-[[5-(trifluoromethyl)-1,3,4-thiadiazol-2-yl]oxy]acetamide]
Visual Weed Control (%) - 22 DAA BRAPP Obs ([1]; 187.5 gai/ha): 10%
Visual Weed Control (%) - 22 DAA BRAPP Obs ([1]; 375 gai/ha): 20%
Visual Weed Control (%) - 22 DAA BRAPP Obs ([1]; 750 gai/ha): 40%
Visual Weed Control CHEAL Obs ([2]; 60 gai/ha): 0%
Visual Weed Control CHEAL Obs ([2]; 120 gai/ha): 0%
Visual Weed Control CIRAR Obs ([3]; 60 gai/ha): 0%
Visual Weed Control CIRAR Obs ([3]; 120 gai/ha): 0%
Visual Weed Control CIRAR Obs ([3]; 240 gai/ha): 17%
Visual Weed Control KCHSC Obs ([4]; 60 gai/ha): 5%
Visual Weed Control KCHSC Obs ([4]; 120 gai/ha): 5%
Visual Weed Control KCHSC Obs ([4]; 240 gai/ha): 17%
Visual Weed Control PAPRH Obs ([5]; 60 gai/ha): 0%
Visual Weed Control PAPRH Obs ([5]; 120 gai/ha): 5%
Visual Weed Control PAPRH Obs ([5]; 240 gai/ha): 7%
Visual Weed Control SASKR Obs ([6]; 60 gai/ha): 5%
Visual Weed Control SASKR Obs ([6]; 120 gai/ha): 5%
Visual Weed Control SASKR Obs ([6]; 240 gai/ha): 13%
Visual Weed Control SINAR Obs ([7]; 60 gai/ha): 5%
Visual Weed Control SINAR Obs ([7]; 120 gai/ha): 8%
Visual Weed Control STEME Obs ([8]; 60 gai/ha): 0%
Visual Weed Control STEME Obs ([8]; 120 gai/ha): 5%
Visual Weed Control STEME Obs ([8]; 240 gai/ha): 42%

CCOCCN(C(=O)CCl)C(=C(C)C)c1ccccc1 [Pethoxamid, 2-Chloro-N-(2-ethoxyethyl)-N-(2-methyl-1-phenyl-1-propen-1-yl)acetamide]
Visual Weed Control (%) - 21 DAA LEFCH Obs ([9]; 305 gai/ha): 10%
Visual Weed Control (%) - 21 DAA LEFCH Obs ([9]; 610 gai/ha): 10%
Visual Weed Control (%) - 21 DAA CYPIR Obs ([10]; 305 gai/ha): 40%
Visual Weed Control (%) - 21 DAA CYPIR Obs ([10]; 610 gai/ha): 80%
Visual Weed Control (%) - 21 DAA CYPIR Obs ([10]; 1220 gai/ha): 85%
Visual Weed Control (%) - 21 DAA CYPES Obs ([11]; 305 gai/ha): 0%
Visual Weed Control (%) - 21 DAA CYPES Obs ([11]; 610 gai/ha): 25%
Visual Weed Control (%) - 21 DAA CYPES Obs ([11]; 1220 gai/ha): 65%
